Assay: Gastrointestinal absorption test, blood concentration of ceftriaxone after intra-duodenal administration
Type: in vivo, Sprague Dawley rat
Details: intra-duodenal 40 mg/kg, normal rats
Method: Normal rat (Sprague Dawley, male, weighing about 200 g) was ether-anesthetized, and the abdomen was opened. The duodenum was taken and the nanoparticle liquid formulation containing ceftriaxone was administered thereto at 40 mg/kg as ceftriaxone.
The formulations of Examples 6 and Example 7, and Comparative Example 5 were used for test groups. The formulation of Comparative Example 5 is one containing neither ceftriaxone-counter-ion complex nor polymer, and so having lower drug entrapping rate and incapable of controlling drug dissolution compared with that of Example 6.
Blood was gathered from tail vein at 0, 0.5, 1, 1.5, 2, 3 and 4 hours after the drug administration, and analyzed according to ceftriaxone analysis method of the US Pharmacopoeia. The blood was centrifuged at 3000 rpm for 10 minutes, and pretreated by adding the equal amount of acetonitrile thereto.
As reference group 1, ceftriaxone dissolved in water was administered at 40 mg/kg via the same route as Example 6.
As reference group 2, ceftriaxone dissolved in a physiological saline was intravenously injected at 20 mg/kg.

- absorption of ceftriaxone in vivo: not nearly absorbed
Structure (SMILES): CO/N=C(\C(=O)N[C@@H]1C(=O)N2C(C(=O)O)=C(CSc3nc(=O)c(=O)[nH]n3C)CS[C@H]12)c1csc(N)n1 [aqueous solution of ceftriaxone, ceftriaxone]

Source: patent US7674767B2, “Nanoparticle compositions of water-soluble drugs for oral administration and preparation methods thereof” (Samyang Corporation, priority 2003, dated 2010)
